In publication PMC9348805, “Identification of the NRF2 transcriptional network as a therapeutic target for trigeminal neuropathic pain” (Science Advances, 2022):

Target: T1, TRPA1 (Homo sapiens, UniProt O75762)
T1 construct: full-length myc-tagged TRPA1 cDNA (gift of M. Caterina), transiently expressed in HEK-293 cells; Fura-2 calcium imaging
Assay: calcium imaging (Fura-2) of HEK-293 cells transiently expressing TRPA1, with vector and mutant controls
Type: cell-based

T1 sequence (O75762 whole entry): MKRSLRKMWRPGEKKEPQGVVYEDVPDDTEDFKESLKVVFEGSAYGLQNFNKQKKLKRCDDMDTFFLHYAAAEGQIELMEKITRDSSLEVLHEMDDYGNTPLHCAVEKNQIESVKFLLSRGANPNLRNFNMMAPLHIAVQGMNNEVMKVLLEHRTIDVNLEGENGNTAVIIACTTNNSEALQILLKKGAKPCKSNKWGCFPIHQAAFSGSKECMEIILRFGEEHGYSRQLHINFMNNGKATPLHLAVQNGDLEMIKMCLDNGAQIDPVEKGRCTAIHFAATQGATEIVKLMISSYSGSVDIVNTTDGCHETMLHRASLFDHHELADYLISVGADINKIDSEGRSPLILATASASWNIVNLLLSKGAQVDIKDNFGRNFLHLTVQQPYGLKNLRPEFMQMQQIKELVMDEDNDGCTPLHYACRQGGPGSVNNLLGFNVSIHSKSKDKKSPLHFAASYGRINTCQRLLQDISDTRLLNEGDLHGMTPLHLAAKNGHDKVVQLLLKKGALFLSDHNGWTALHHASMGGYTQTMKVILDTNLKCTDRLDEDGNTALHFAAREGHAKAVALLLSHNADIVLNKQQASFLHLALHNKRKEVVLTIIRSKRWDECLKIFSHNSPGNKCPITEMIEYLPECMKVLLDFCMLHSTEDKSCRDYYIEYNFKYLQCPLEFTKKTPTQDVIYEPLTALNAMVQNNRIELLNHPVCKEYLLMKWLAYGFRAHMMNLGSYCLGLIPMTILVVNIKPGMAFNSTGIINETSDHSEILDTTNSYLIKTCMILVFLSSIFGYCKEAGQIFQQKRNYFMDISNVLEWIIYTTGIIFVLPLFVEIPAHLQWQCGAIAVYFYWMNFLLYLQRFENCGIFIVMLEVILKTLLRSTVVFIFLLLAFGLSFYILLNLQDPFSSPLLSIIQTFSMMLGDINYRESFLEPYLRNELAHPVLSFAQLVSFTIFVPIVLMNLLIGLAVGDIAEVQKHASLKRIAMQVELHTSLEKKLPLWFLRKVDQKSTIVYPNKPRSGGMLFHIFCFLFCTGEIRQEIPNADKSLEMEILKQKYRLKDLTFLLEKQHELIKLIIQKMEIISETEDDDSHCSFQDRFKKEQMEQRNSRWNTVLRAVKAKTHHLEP

EC50: 48 µM
SMILES: CCCCCC(O)C=CC=O (stereo not shown) [4-HNE]
